Experimental data taken from patent US4410537A, “Pharmaceutical ethers” (Burroughts Wellcome Co., priority 1979, dated 1983).

How the values were obtained:
haemoglobin [1] = assay: Effect on the oxygen-dissociation curve of whole normal human blood in vitro; type: cell-based; conditions: for Mean p50: normal human blood, 30 mins, 37° C., control 26.0
Description: (§1) Compound (Ia) was dissolved in isotonic saline containing sodium bicarbonate 25 mM. […] The mixtures were incubated (30 mins, 37° C.) and the oxygen-dissociation curve for each then measured using a whole-blood spectrophotometer (Hem-O-Scan, Trade Name).

haemoglobin [2] = assay: Effect on the oxygen-dissociation curve of whole homozygous human sickle-cell blood in vitro; type: cell-based
Description: Compound (Ia) was dissolved in isotonic saline containing sodium bicarbonate 25 mM. […]
Homozygous human sickle-cell blood (4 vols) was mixed with acid-citrate-dextrose anticoagulant (1 vol) and a portion of the mixture set aside as a control.

[3] = system: whole homozygous human sickle-cell blood; assay: Effect on sickling in vitro of whole homozygous human sickle-cell blood; type: cell-based; conditions: 3.0 mM, 60 mins, oxygen tension about 28 mm Hg; about 50% sickled at start; controls nearly 70%
haemoglobin [4] = assay: Effect on the oxygen-dissociation curve of whole rat blood in vivo; conditions: for Mean p50: 1 hour, rat
Description: as §1
Female albino rats (100-120 g) were fasted for 24 hrs with water available ad lib. Compound (Ia) was dissolved in isotonic saline containing sodium bicarbonate 25 mM and administered to two rats orally (500 mg/kg) and to two rats intravenously (100 mg/kg): appropriate vehicle controls were administered simultaneously to control animals. After 1 hour all animals were exsanguinated via the abdominal aorta under chloroform anaesthesia: 2.5 ml of blood from each was mixed with disodium edetate (anticoagulant) and the oxygen-dissociation curve of each sample measured as in (A).

haemoglobin [5] = assay: Effect on the oxygen-dissociation curve of whole rat blood in vitro; type: cell-based
Description: as §1
Blood (6.5 ml) from an adult albino rat, exsanguinated via the abdominal aorta under ether anaesthesia, was mixed with acid-citratedextrose anticoagulant (1.5 ml). […] Both samples were incubated (30 mins, 37° C.) and the oxygen-dissociation curve of each measured as in (A).

[6] = Acute oral toxicity in mice; conditions: mouse, in vivo, solution in sodium bicarbonate-saline
anaesthetized rats = assay: Cardiovascular effects in anaesthetized rats; type: in vivo, rat
Description: Male Wistar rats weighing between 250-350 g were used. Anaesthesia was induced with 3-5% halothane in oxygen and maintained with a mixture of chloralose (60 mg/kg i.v.) and pentobarbitone (20 mg/kg i.v.). A femoral vein was cannulated for the administration of drugs and the ipsilateral femoral artery for measuring arterial blood pressure; heart rate was derived from the femoral pulse by a cardiotachometer. Body temperature was maintained at 38° C.
Five test rats were each given a series of increasing doses of compound (Ia) as a solution in 10%-saturated sodium bicarbonate (saturated sodium bicarbonate solution diluted 1:9). Sufficient time was allowed between doses for the variables to return either to the pre-dose level or to a steady state if full recovery was not attained. Measurements were made 2 mins. after dose or at maximum effect.
Control rats (3) were given a series of 0.2 ml. injections of the sodium bicarbonate vehicle (up to 15 injections) to assess any effect of sodium bicarbonate and of increasing extracellular fluid volume on blood pressure and heart rate.

O=Cc1c(O)cccc1OCCCCC(=O)O [Example 1, 5-(2-formyl-3-hydroxyphenoxy)pentanoic acid]
Mean p50 (haemoglobin [1]; 0.3 mM): 25.5 mm. Hg | Mean p50 (haemoglobin [1]; 1.0 mM): 21.5 mm. Hg | Mean p50 (haemoglobin [1]; 3.0 mM): 9.0 mm. Hg | displacement of the oxygen-dissociation curve (haemoglobin [1]; whole normal human blood in vitro): dose-related left-displacement | Mean p50 (haemoglobin [2]; 3.0 mM, homozygous sickle-cell blood, 37° C., minimum 45 mins, three patients, control 51): 10 mm. Hg | displacement of the oxygen-dissociation curve (haemoglobin [2]; whole homozygous (SS genotype) human sickle-cell blood in vitro): considerable left-displacement | proportion of sickled cells [3]: about 3% | Mean p50 (haemoglobin [4]; 100 mg/kg i.v., vehicle 43.37): 22.37 mm. Hg | Mean p50 (haemoglobin [4]; 500 mg/kg p.o., vehicle 42.75): 10.25 mm. Hg | displacement of the oxygen-dissociation curve (haemoglobin [4]; whole rat blood in vivo): considerable left-displacement | Mean p50 (haemoglobin [5]; 3.0 mM, rat blood in vitro, 30 mins, 37° C., control 44.5): 8.2 mm. Hg | displacement of the oxygen-dissociation curve (haemoglobin [5]; whole rat blood in vitro): considerably left-displaced | LD50 [6]: ~1000 mg/kg | change in blood pressure (anaesthetized rats; 32-128 mg/kg i.v., anaesthetized rats): Significant dose-dependent falls in pressure | change in heart rate (anaesthetized rats; after the 64 mg/kg dose, three rats, not statistically significant): slight tachycardia | change in heart rate (anaesthetized rats; anaesthetized rats, i.v.): no marked changes in heart rate | time of blood pressure recovery after each dose (anaesthetized rats; anaesthetized rats, i.v.): ≤ 15 min | change in systolic, diastolic or mean blood pressures (anaesthetized rats; up to 16 mg/kg i.v., anaesthetized rats): no appreciable change
